Reference: patent publication US20240059658A1 (Emory University, priority 2019, published 2024)
Read-outs that look alike come from different tables or passages of the source.

Experiments:
NB cell lines = experiment: Colony formation assay, NB cell lines; format: cell-based, human
Procedure: A clonogenic assay was used to determine the effect of MX69 analogs on in vitro growth of NB and normal human hematopoietic cells, respectively. For NB1 colony formation assay, cells were harvested with treatment by trypsinization, producing a single-cell suspension, and then 200 cells were seeded into a 6-well plate and cultured for approximately 2 weeks. Colonies were stained with a mixture of 6.0% glutaraldehyde and 0.5% crystal violet for 30 min. Then carefully removed the staining mixture, rinsed with tap water and counted the colonies.

91-06 line = experiment: WST cytotoxicity assay, 91-06 line; format: cell-based; conditions: no MDM2 and p53, read-out: Cancer cell cytotoxicity IC50
Procedure: (§1) The cytotoxic effect of MX 69 and MX69 analogs on cancer cells was determined using the water-soluble tetrazolium salt (WST) assay. Briefly, cells cultured in 96-well microtiter plates were treated with different concentrations of AQ-101 for a 20-h period. WST (25 μg/well) was then added and incubation continued for an additional 4 h, after which optical density (OD) was read with a microplate reader (test wavelength of 450 nm; reference wavelength of 620 nm).

p53 = p53 induction / expression (Western blot); format: cell-based; conditions: for p53 induction: words or +/− grades, key not given
Procedure: (§2) Cells were lysed in a buffer composed of 50 mM Tris, pH 7.6, 150 mM NaCl, 1% Nonidet P-40, 10 mM sodium phosphate, 10 mM NaF, 1 mM sodium orthovanadate, 2 mM phenylmethylsulfonyl fluoride (PMSF), […], 10 μg/mL leupeptin and 10 μg/mL pepstatin. After centrifugation, the clarified cell lysate was separated from the pellet of cell debris, and then incubated with 15 μL Protein G/Protein A-agarose and 1 μg of antibodies, overnight at 4° C. For the Western blot, the resulting cell lysates or immunoprecipitates were resolved by SDS-PAGE. They were then transferred to a nitrocellulose filter and probed with the specific antibodies as listed in the supplemental Materials section. Finally, proteins were visualized with a chemiluminescent detection system.

855 luc = experiment: WST cytotoxicity assay, 855 luc; format: cell-based; conditions: read-out: Cancer cell cytotoxicity IC50
Procedure: as §1

LA1-55N = experiment: WST cytotoxicity assay, LA1-55N; format: cell-based, human; conditions: line does not express normal p53
Procedure: (§3) This study used two ALL cell lines (EU-1 and EU-3) and three NB cell lines (NB-1643, SHEP1 and LA1-55N). All 5 cancer cell lines were established from pediatric ALL or NB patients and were well-characterized for their expression of MDM2 and p53-status, as reported previously. All cell lines were grown in standard culture medium (RPMI 1640 containing 10% FBS, 2 mmol/L L-glutamine, 50 U penicillin and 50 μg/mL streptomycin) at 37° C. in a humidified atmosphere containing 5% CO2.
as §1

[1] = system: ALL cell lines EU-1 and EU-3; experiment: WST cytotoxicity assay, ALL cell lines; format: cell-based; conditions: Homo sapiens, 48 h, read-out: IC50, cytotoxicity against ALL cell lines
Procedure: as §3
as §1, with “Briefly, cells cultured in 96-well microtiter plates were treated with different concentrations of AQ-101 for a 20-h period.” left out

855 line = experiment: WST cytotoxicity assay, 855 line; format: cell-based; conditions: read-out: Cancer cell cytotoxicity IC50
Procedure: as §1

93-10 line = experiment: WST cytotoxicity assay, 93-10 line; format: cell-based; conditions: 93-10 line no MDM2 and p53; read-out: Cancer cell cytotoxicity IC50
Procedure: as §1

EU-1 = experiment: WST cytotoxicity assay, cancer cell EU-1; format: cell-based, human
Method in brief: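 Pediatric ALL and NB lines grown in RPMI 1640 with 10% FBS at 37 °C, 5% CO2. Cells were exposed to a range of compound concentrations for 20 h, then WST (25 μg/well) was added for a further 4 h. OD read at 450 nm against a 620 nm reference.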

MDM2 [2] = target: T1, MDM2 (Homo sapiens, UniProt Q00987); experiment: MDM2 reduction / expression (Western blot); format: cell-based
T1 construct: ubiquitination of endogenous MDM2 in EU-1 cells; endogenous in cells; host or cells: EU-1 (ALL) cells
T1 sequence (Q00987 whole entry): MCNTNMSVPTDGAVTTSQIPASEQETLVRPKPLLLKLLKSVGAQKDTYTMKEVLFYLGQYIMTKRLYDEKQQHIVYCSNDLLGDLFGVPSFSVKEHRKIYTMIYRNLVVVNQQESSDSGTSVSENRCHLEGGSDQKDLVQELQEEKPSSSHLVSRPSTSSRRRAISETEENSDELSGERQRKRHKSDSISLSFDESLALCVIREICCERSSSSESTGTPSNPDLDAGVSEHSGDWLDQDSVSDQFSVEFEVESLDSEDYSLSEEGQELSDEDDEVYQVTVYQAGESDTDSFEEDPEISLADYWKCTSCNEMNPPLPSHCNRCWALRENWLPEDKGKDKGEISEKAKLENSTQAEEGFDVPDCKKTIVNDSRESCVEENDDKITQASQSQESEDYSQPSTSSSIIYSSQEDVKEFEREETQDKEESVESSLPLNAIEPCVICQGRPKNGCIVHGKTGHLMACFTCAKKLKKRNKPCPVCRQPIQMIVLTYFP
Procedure: as §2

p21 and PUMA = experiment: Western blot for p53 targets p21 and PUMA in EU-1 cells; format: cell-based
Procedure: as §2

[3] = system: NB cell lines NB-1643, SHEP1 and LA1-55N; experiment: WST cytotoxicity assay, NB cell lines; format: cell-based; conditions: Homo sapiens, NB-1643, SHEP1, LA1-55N, 48 h, read-out: IC50, cytotoxicity against NB cell lines
Procedure: as §3
as §1, with “Briefly, cells cultured in 96-well microtiter plates were treated with different concentrations of AQ-101 for a 20-h period.” left out

XIAP = XIAP inhibition / expression (Western blot); format: cell-based; conditions: EU-1 cells; dose-dependent
Procedure: as §2

NB-1643 = experiment: WST cytotoxicity assay, NB-1643; format: cell-based; conditions: Homo sapiens; NB-1643 line; read-out: Cancer cell cytotoxicity IC50
Procedure: as §3, §1

DAOY line = experiment: WST cytotoxicity assay, DAOY line; format: cell-based; conditions: Homo sapiens; DAOY line with MDM2/no p53; read-out: Cancer cell cytotoxicity IC50
Procedure: as §1

XIAP mRNA = experiment: Polysome analysis of XIAP mRNA in EU-1 cells; format: cell-based; conditions: 1 μM for 4 h
Procedure: Cells were incubated with 100 μg/mL cycloheximide (CHX) for 15 min to arrest polyribosome migration, and then lysed (in order to isolate cytoplasmic extracts) in a buffer containing 20 mM Tris-HCl at pH 8.0, 100 mM NaCl, 5 mM MgCl2, 0.5% Triton X-100, 500 U/mL RNAsin, and a cocktail of protease inhibitors. Fractionation was performed on a 15-45% (w/v) sucrose gradient at 39,000 rpm for 1 h (SW41Ti rotor). Fractions were collected by upward replacement in a fractionator (Isco, Lincoln, NE). The RNA from each fraction was subjected to quantitative PCR.

MDM2 [4] = target: T1, MDM2; experiment: IP-Western blot, ubiquitination of endogenous MDM2 in EU-1 cells; format: cell-based; conditions: 1 μM
Procedure: as §2

caspases-3, -9 and PARP = experiment: Western blot, cleavage of caspases-3, -9 and PARP in EU-1 cells; format: cell-based
Procedure: as §2

697 cell line = experiment: WST cytotoxicity assay, 697 cell line; format: cell-based; conditions: read-out: Cancer cell cytotoxicity IC50
Procedure: as §1

MDM2 RING protein [5] = target: T2, MDM2 RING protein (Homo sapiens, UniProt Q00987); experiment: Compound-protein binding (ITC) to MDM2 RING protein; conditions: MDM2 RING domain
T2 sequence (Q00987 438-479 limits assumed): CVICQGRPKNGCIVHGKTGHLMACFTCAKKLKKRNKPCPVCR
Procedure: Isothermal titration calorimetry (ITC) assay was performed using the auto-iTC200 instrument (MicroCal, GE). MDM2 protein was loaded into a 96 DeepWell PP plate, and then compound was titrated stepwise into the protein sample cell using a syringe, for a total of 16 injections (except for the first injection, which was 0.4 μl). The equilibrium time between two adjacent injections was 210 s. The binding stoichiometry (n), binding constant (Kd), and thermodynamic parameters (ΔH and ΔS) were determined by fitting the titration curve to a one-site binding mode, using the Origin software provided by the manufacturer.

MYCN = MYCN inhibition; format: cell-based; conditions: MDM2 reduction
in vivo = conditions: mouse
MDM2 RING protein [6] = target: T2, MDM2 RING protein; conditions: Gu et al. Cancer Cell 2016; cited from earlier work
normal cells/tissues = conditions: Gu et al. Cancer Cell 2016; cited from earlier work

With `Cc1ccc(NS(=O)(=O)c2ccc3c(c2)C2OCC[C@H]2C(c2ccc(C(=O)C(C)C)cc2)N3)cc1C` (stereo partly drawn) [Compound 69L52, N-(3,4-dimethylphenyl)-4-(4-isobutyrylphenyl)-2,3,3a,4,5,9b-hexahydrofuran[3,2-c]quinolone-8-sulfonamide] the “Colony number and size as compared with controls” value (NB cell lines; NB cell lines) was “significant reduction”, the “Cell growth in colony formation assay” value (NB cell lines; all 3 NB cell lines, two weeks) was “potently inhibited cell growth” and the IC50 (91-06 line) was 3620 nM. For the same compound, the p53 expression (p53; EU-1 cells, accompanying MDM2 downregulation) was “increased expression”, the p53 induction (p53) was “induction” and the IC50 (855 luc) was 500 nM. For the same compound, the “Cytotoxicity to LA1-55N compared with other cell lines” value (LA1-55N) was “much less cytotoxicity”, the IC50 [1] was 300 to 400 nM and the IC50 (855 line) was 740 nM. The IC50 (93-10 line) was 5930 nM, the IC50 (EU-1; EU-1, no other cell line named in the cell, read-out: Cancer cell (EU-1) cytotoxicity IC50) was 1100 to 1400 nM and the IC50 (EU-1; Homo sapiens, EU-1, printed in the Mouse MTD column, control run of the cytotoxicity test, read-out: Value of the compound used as (positive) control alongside the row's compound) was 460 nM. The “Time after treatment at which MDM2 and XIAP downregulation occurred” value (MDM2 [2]; EU-1 cells) was 2 to 4 h, the “MDM2 downregulation in presence of MG132” value (MDM2 [2]; EU-1 cells, 1 μM for 8 h, then 10 μM MG132 4 h) was “blocked by MG132” and the MDM2 expression (MDM2 [2]; EU-1 cells, dose-dependent) was “remarkable downregulation”. For the same compound, the MDM2 reduction (MDM2 [2]; words or +/− grades, key not given) was “inhibition”, the “p53 downstream targets p21 and PUMA” value (p21 and PUMA) was “activation” and the IC50 [3] was 500 to 1200 nM. For the same compound, the XIAP expression (XIAP) was “remarkable downregulation”, the IC50 (NB-1643) was 700 nM and the IC50 (DAOY line) was 2170 nM. The “Polyribosome association of XIAP mRNA” value (XIAP mRNA) was “downregulation in polyribosome association”, the “Ubiquitination of endogenous MDM2” value (MDM2 [4]) was “induced ubiquitination of endogenous MDM2” and the “Cleavage of caspases-3, -9 and PARP compared with MX69” value (caspases-3, -9 and PARP; 69L52 1 μM vs MX69 5 μM) was “stronger cleavage”. The IC50 (697 cell line) was 450 nM and the “MDM2 binding affinity as compared with MX69” value (MDM2 RING protein [5]) was “Increased MDM2 Binding Affinity”.
For `Cc1ccc(NS(=O)(=O)c2ccc3c(c2)C2NCC[C@H]2C(C2CCCCC2)N3)cc1C` (stereo partly drawn) [Compound 69L61], the p53 induction (p53) was “No p53”, the IC50 (855 line) was 2430 nM and the MYCN inhibition (MYCN) was “inhibition”. For the same compound, the IC50 (NB-1643) was 1600 nM and the IC50 (697 cell line) was 3600 nM.
For `Cc1ccc(NS(=O)(=O)c2ccc3c(c2)[C@H]2C=CC[C@H]2[C@H](c2ccc(C(=O)O)cc2)N3)cc1C` [MX69, reference compound], the MTD (in vivo) is given as 200 mg/kg, the “Binding to the RING domain of MDM2” value (MDM2 RING protein [6]) is given as “specifically binds to the RING domain of MDM2” and the “Toxicity on normal cells/tissues” value (normal cells/tissues) is given as “minimal toxicity”. The IC50 (EU-1; Homo sapiens, EU-1, EU-1, no other cell line named in the cell, read-out: Cancer cell (EU-1) cytotoxicity IC50) was 7000 nM.
In the case of `Cc1ccc(NS(=O)(=O)c2ccc3c(c2)C2OCCC2C(c2ccc(C(=O)C(C)C)cc2)N3)cc1C` (stereo not drawn) [McX69-102], the “Time after treatment at which cleavage of caspases-3, -9 and PARP can be detected” value (caspases-3, -9 and PARP) is reported as 8 h.
